Marks after values point to notes of the source that are not given here.
Experiments:
Assay type in all cases: cell-based
A. actinomycetemcomitans = assay: Multi-species biofilm composition: absolute abundance of A. actinomycetemcomitans; settings: mean±SD n=3
Protocol: (§1) Biofilms are grown vertically on Calcium Deficient Hydroxyapatite (CAD-HA) disks (Hitemco Medical, Old Bethpage, USA) using the Amsterdam Active Adhesion model. Biofilms are allowed to establish during 24 h (37° C., 170 rpm) under micro-aerophilic conditions (6% O2, 7% CO2, 7% H2, 80% N2). After this 24 h, disks are rinsed 3 times a day for 3 minutes (RT, 250 rpm), for 3 consecutive days, by transferring the lid containing the disks to a new 24-well plate containing 2 mL/well of the appropriate substrate solution. As a negative control, PBS (pH 5.7) without substrate supplementation is used. After each rinsing step, disks are shortly dip-rinsed in a new 24-well plate containing fresh modified BHI medium (2 mL/well) to remove remaining substrate traces. Subsequently, the lid is transferred to another 24-well plate containing fresh modified BHI medium (2 mL/well), followed by incubation (micro-aerophilic, 37° C., 170 rpm) until the next rinsing step.
(§2) NADM, N-acetyl-D-glucosamine (“NADG”) and D-(+)-mannose are selected to determine their effects on multi-species biofilm composition. […] decrease in absolute numbers in at least four of the pathogenic bacterial species tested in the assay, compared to the control, the results of which are described in Table 1 below. Absolute abundances of bacterial species are shown as mean±SD (n=3) logarithmic values of the genome equivalents per millilitre (log(Geq/mL)).

[1] = system: P. intermedia virulence genes; assay: Multi-species biofilm virulence gene expression, SYBR RT-qPCR: P. intermedia; settings: for Fold Change in virulence gene expression: DnaJ / Fold Change in virulence gene expression: DnaK / Fold Change in virulence gene expression: ECF / Fold Change in virulence gene expression: GroES / Fold Change in virulence gene expression: HtpG / Fold Change in virulence gene expression: KpsD / Fold Change in virulence gene expression: adpc / Fold Change in virulence gene expression: clpB / Fold Change in virulence gene expression: inpA / Fold Change in virulence gene expression: phg: relative to control (=1), 2^-ΔΔCt, geometric mean n=3
Protocol: as §1
(§3) The expression of 33 virulence genes from 4 periodontal pathogens is analysed to evaluate the relative virulence of the substrate-treated biofilms. For all three substrates, virulence gene expression is determined relatively to the control, and these values are also compared between substrates when this is relevant (Tables 5a-5d).

[2] = system: human oral keratinocytes (HOK-18A); assay: Inflammatory mediator gene expression in keratinocytes exposed to substrate-treated biofilms; settings: for Fold change in inflammatory mediator gene expression: IL-1β / Fold change in inflammatory mediator gene expression: IL-6 / Fold change in inflammatory mediator gene expression: IL-8 / Fold change in inflammatory mediator gene expression: MMP-8 / Fold change in inflammatory mediator gene expression: TNF-α: relative to control (=1), geometric mean (95% C.I.) n=3
Protocol: Cultures of immortalized human oral keratinocytes (HOK-18A) are grown. The relative inflammatory potential of the substrate-treated multi-species biofilms is evaluated by analyzing the expression of five inflammatory mediator genes in human oral keratinocytes (HOKs) exposed to the substrate-treated biofilms. […] The IL-8 levels in the cellular supernatant are determined as well. RNA is converted to cDNA and relative expression of inflammatory mediator genes is determined as described above with respect to the cellular housekeeping gene (3-actin.
In HOKs exposed to substrate-treated (substrate concentrations of 1 M) multi-species biofilms, mostly decreases in inflammatory mediator gene expression are observed and measured via SYBR RT-qPCR, the results of which are detailed in Table 6.
All substrates are dissolved in PBS at a concentration of 1 M (upper part) or 1% (w/v) (lower part). Values between 0 and 1 represent relative downregulation, values >1 represent relative upregulation. […] For such values, statistically significant differences between two experimental conditions are marked with ‘#1’ (vs. NADM), ‘#2’ (vs. NADG), ‘#3’ (vs. D-(+)-mannose) (P<0.05).

S. mutans = assay: Multi-species biofilm composition: absolute abundance of S. mutans; settings: for Absolute abundance S. mutans: mean±SD n=3
Protocol: as §1
NADM, N-acetyl-D-glucosamine (“NADG”) and D-(+)-mannose are selected to determine their effects on multi-species biofilm composition. Repeated rinsing of the biofilms with the substrates at a concentration of 1M results in a significant decrease in absolute numbers in at least four of the pathogenic bacterial species tested in the assay, compared to the control, the results of which are described in Table 1 below. Absolute abundances of bacterial species are shown as mean±SD (n=3) logarithmic values of the genome equivalents per millilitre (log(Geq/mL)).

F. nucleatum = assay: Multi-species biofilm composition: absolute abundance of F. nucleatum; settings: mean±SD n=3
Protocol: as §1, §2

S. mitis = assay: Multi-species biofilm composition: absolute abundance of S. mitis; settings: mean±SD n=3
Protocol: as §1, §2

S. sanguinis = assay: Multi-species biofilm composition: absolute abundance of S. sanguinis; settings: mean±SD n=3
Protocol: as §1, §2

[3] = system: A. actinomycetemcomitans virulence genes; assay: Multi-species biofilm virulence gene expression, SYBR RT-qPCR: A. actinomycetemcomitans; settings: for Fold Change in virulence gene expression: aae / Fold Change in virulence gene expression: apaH / Fold Change in virulence gene expression: cdtB / Fold Change in virulence gene expression: emaA / Fold Change in virulence gene expression: flp / Fold Change in virulence gene expression: ltxA / Fold Change in virulence gene expression: omp29 / Fold Change in virulence gene expression: omp100 / Fold Change in virulence gene expression: orf859 / Fold Change in virulence gene expression: pgA / Fold Change in virulence gene expression: vapA / Fold Change in virulence gene expression: vppA: relative to control (=1), 2^-ΔΔCt, geometric mean n=3
Protocol: as §1, §3

[4] = system: P. gingivalis virulence genes; assay: Multi-species biofilm virulence gene expression, SYBR RT-qPCR: P. gingivalis; settings: relative to control, 2^-ΔΔCt, geometric mean n=3
Protocol: as §1, §3

[5] = biofilm rinsed with substrate 1%
[6] = biofilm rinsed with substrate 1M

CC(=O)N[C@@H]1C(O)O[C@H](CO)[C@@H](O)[C@@H]1O (stereo partly drawn) [NADM, N-acetyl-D-mannosamine]
Absolute abundance Aa (A. actinomycetemcomitans) (A. actinomycetemcomitans; substrate 1%(w/v) in PBS): 9.51 ± 0.05 log(Geq/mL) | Absolute abundance Aa (A. actinomycetemcomitans) (A. actinomycetemcomitans; substrate 1 M in PBS): 7.84 ± 0.53 log(Geq/mL) | Relative P. intermedia virulence gene expression, downregulation ([1]; substrate 1%(w/v), D-(+)-mannose for 3 genes): 2.5- to 7.7 fold | Fold Change in virulence gene expression: DnaJ ([1]; substrate 1%): 0.19 fold | Fold Change in virulence gene expression: DnaK ([1]; substrate 1%): 0.31 fold | Fold Change in virulence gene expression: ECF ([1]; substrate 1%): 0.13 fold | Fold Change in virulence gene expression: GroES ([1]; substrate 1%): 0.51 fold | Fold Change in virulence gene expression: HtpG ([1]; substrate 1%): 0.21 fold | Fold Change in virulence gene expression: KpsD ([1]; substrate 1%): 0.35 fold | Fold Change in virulence gene expression: adpc ([1]; substrate 1%): 0.21 fold | Fold Change in virulence gene expression: clpB ([1]; substrate 1%): 0.40 fold | Fold Change in virulence gene expression: inpA ([1]; substrate 1%): 0.28 fold | Fold Change in virulence gene expression: phg ([1]; substrate 1%): 0.26 fold | Fold Change in virulence gene expression: DnaJ ([1]; substrate 1M): 0.15 fold | Fold Change in virulence gene expression: DnaK ([1]; substrate 1M): 0.70 fold | Fold Change in virulence gene expression: ECF ([1]; substrate 1M): 0.55 fold | Fold Change in virulence gene expression: GroES ([1]; substrate 1M): 0.45 fold | Fold Change in virulence gene expression: HtpG ([1]; substrate 1M): 0.35 fold | Fold Change in virulence gene expression: KpsD ([1]; substrate 1M): 0.41 fold | Fold Change in virulence gene expression: adpc ([1]; substrate 1M): 0.70 fold | Fold Change in virulence gene expression: clpB ([1]; substrate 1M): 0.40 fold | Fold Change in virulence gene expression: inpA ([1]; substrate 1M): 0.64 fold | Fold Change in virulence gene expression: phg ([1]; substrate 1M): 0.15 fold | Fold change in inflammatory mediator gene expression: IL-1β [2, 5]: 0.83 (0.66-1.04) fold | Fold change in inflammatory mediator gene expression: IL-6 [2, 5]: 0.73 (0.48-1.13) fold | Fold change in inflammatory mediator gene expression: IL-8 [2, 5]: 1.32 (1.14-1.53) fold | Fold change in inflammatory mediator gene expression: MMP-8 [2, 5]: 0.62 (0.21-1.84) fold | Fold change in inflammatory mediator gene expression: TNF-α [2, 5]: 0.69 (0.48-1.00) fold | Fold change in inflammatory mediator gene expression: IL-1β [2, 6]: 0.59 (0.30-1.14) fold | Fold change in inflammatory mediator gene expression: IL-6 [2, 6]: 0.86 (0.34-2.18) fold | Fold change in inflammatory mediator gene expression: IL-8 [2, 6]: 0.10 (0.05-0.17)* fold | Fold change in inflammatory mediator gene expression: MMP-8 [2, 6]: 1.66 (0.82-3.35)* fold | Fold change in inflammatory mediator gene expression: TNF-α [2, 6]: 0.73 (0.64-0.83) fold | MMP-8 gene expression increase ([2]; substrate 1 M): 1.7 fold | Decrease in S. mutans vs control (S. mutans; substrate 1%(w/v)): 0.5 log(Geq/mL) | Absolute abundance S. mutans (S. mutans; substrate 1%(w/v) in PBS): 7.01 ± 0.05 log(Geq/mL) | Change in S. mutans numbers compared to the control (S. mutans; substrate 1 M): −1.2 log(Geq/mL) | Absolute abundance S. mutans (S. mutans; substrate 1 M in PBS): 7.41 ± 0.44 log(Geq/mL) | Absolute abundance Fn (F. nucleatum) (F. nucleatum; substrate 1%(w/v) in PBS): 9.60 ± 0.22 log(Geq/mL) | Absolute abundance Fn (F. nucleatum) (F. nucleatum; substrate 1 M in PBS): 8.14 ± 0.44 log(Geq/mL) | Absolute abundance S. mitis (S. mitis; substrate 1%(w/v) in PBS): < LOD | Absolute abundance S. mitis (S. mitis; substrate 1 M in PBS): <LOD | Absolute abundance S. sang. (S. sanguinis) (S. sanguinis; substrate 1%(w/v) in PBS): 8.62 ± 0.39 log(Geq/mL) | Absolute abundance S. sang. (S. sanguinis) (S. sanguinis; substrate 1 M in PBS): 9.10 ± 0.29 log(Geq/mL) | Fold Change in virulence gene expression: aae ([3]; substrate 1% (w/v)): 0.92 fold | Fold Change in virulence gene expression: apaH ([3]; substrate 1% (w/v)): 0.81 fold | Fold Change in virulence gene expression: cdtB ([3]; substrate 1% (w/v)): 0.59 fold | Fold Change in virulence gene expression: emaA ([3]; substrate 1% (w/v)): 0.40 fold | Fold Change in virulence gene expression: flp ([3]; substrate 1% (w/v)): 0.35 fold | Fold Change in virulence gene expression: ltxA ([3]; substrate 1% (w/v)): 0.29 fold | Fold Change in virulence gene expression: omp29 ([3]; substrate 1% (w/v)): 0.76 fold | Fold Change in virulence gene expression: omp100 ([3]; substrate 1% (w/v)): 0.42 fold | Fold Change in virulence gene expression: orf859 ([3]; substrate 1% (w/v)): 0.57 fold | Fold Change in virulence gene expression: pgA ([3]; substrate 1% (w/v)): 1.07 fold | Fold Change in virulence gene expression: vapA ([3]; substrate 1% (w/v)): 0.82 fold | Fold Change in virulence gene expression: vppA ([3]; substrate 1% (w/v)): 1.01 fold | A. actinomycetemcomitans gene expression decrease: flp, emaA and omp100 ([3]; substrate 1%(w/v)): 2.4- to 2.9 fold | Fold Change in virulence gene expression: aae ([3]; substrate 1M): 0.27 fold | Fold Change in virulence gene expression: apaH ([3]; substrate 1M): 0.25 fold | Fold Change in virulence gene expression: cdtB ([3]; substrate 1M): 0.31 fold | Fold Change in virulence gene expression: emaA ([3]; substrate 1M): 0.36 fold | Fold Change in virulence gene expression: flp ([3]; substrate 1M): 0.85 fold | Fold Change in virulence gene expression: ltxA ([3]; substrate 1M): 0.01 fold | Fold Change in virulence gene expression: omp29 ([3]; substrate 1M): 0.48 fold | Fold Change in virulence gene expression: omp100 ([3]; substrate 1M): 0.04 fold | Fold Change in virulence gene expression: orf859 ([3]; substrate 1M): 0.11 fold | Fold Change in virulence gene expression: pgA ([3]; substrate 1M): 3.53 fold | Fold Change in virulence gene expression: vapA ([3]; substrate 1M): 0.74 fold | Fold Change in virulence gene expression: vppA ([3]; substrate 1M): 0.81 fold | Fold Change in virulence gene expression: fimA ([4]; substrate 1%): 1.07 fold | Fold Change in virulence gene expression: kgp ([4]; substrate 1%): 3.46 fold | Fold Change in virulence gene expression: partC ([4]; substrate 1%): 0.62 fold | Fold Change in virulence gene expression: rgpA ([4]; substrate 1%): 0.88 fold | Fold Change in virulence gene expression: fimA ([4]; substrate 1M): 0.50 fold | Fold Change in virulence gene expression: kgp ([4]; substrate 1M): 0.82 fold | Fold Change in virulence gene expression: partC ([4]; substrate 1M): 0.20 fold | Fold Change in virulence gene expression: rgpA ([4]; substrate 1M): 0.43 fold
